According to paper PMC10600881 (ACS Omega, 2023):
Converted amounts (≈) assume the structure as drawn. Like-named read-outs stand apart in the source and are kept apart here.

Columns and labels:
E. coli (ATCC25922) = assay: Broth microdilution assay, MIC; type: cell-based; settings: Escherichia coli, ATCC25922, read-out: Minimum Inhibitory Concentration
[1] = system: P. aeruginosa (ATCC 29853); assay: Broth microdilution assay, MIC/MBC; type: cell-based; settings: for ratio (MBC/MIC): P. aeruginosa (ATCC 29853); for fold more efficient than amoxicillin / bactericidal or bacteriostatic effect: P. aeruginosa; for fold more efficient than amoxicillin: from MICs; for bactericidal or bacteriostatic effect: MBC/MIC ≤ 4 = bactericidal; for MBC / MIC: Pseudomonas aeruginosa
S. aureus (ATCC 25923) = assay: Broth microdilution assay, MIC; type: cell-based; settings: Staphylococcus aureus, ATCC25923, read-out: Minimum Inhibitory Concentration
B. subtilis (ATCC 9372) = assay: Broth microdilution assay, MIC; type: cell-based; settings: Bacillus subtilis, ATCC9372, read-out: Minimum Inhibitory Concentration
C. albicans (ATCC 10231) = assay: Broth microdilution assay, antifungal MIC/MFC; type: cell-based, Candida albicans; settings: for ratio (MFC/MIC): C. albicans (ATCC 10231); for fungicidal or fungistatic behavior: C. albicans, MFC/MIC > 4 = fungistatic; for MFC / MIC: Candida albicans
[2] = system: M. tuberculosis (RCMB 010126); assay: Microplate alamar blue assay; type: cell-based, Mycobacterium tuberculosis; settings: MABA
[3] = biological target: T1, M. tuberculosis DHFR enzyme (Mycobacterium tuberculosis, UniProt P9WNX1); assay: biochemical
T1 sequence (P9WNX1 1-161): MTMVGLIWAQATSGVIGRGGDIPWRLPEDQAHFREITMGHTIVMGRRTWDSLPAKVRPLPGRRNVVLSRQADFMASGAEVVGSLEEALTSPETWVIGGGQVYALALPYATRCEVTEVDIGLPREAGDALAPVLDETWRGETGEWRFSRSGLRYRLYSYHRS

[4] = ATCC29853, read-out: Minimum Inhibitory Concentration
[5] = ATCC10231, read-out: Minimum Inhibitory Concentration
[6] = Mycobacterium tuberculosis, RCMB010126, sensitive Mycobacterium tuberculosis (RCMB 010126)
[7] = sensitive Mycobacterium tuberculosis (RCMB 010126)

Row | Compound | MIC (E. coli (ATCC25922)) [µg/mL] | ratio (MBC/MIC) [1] | fold more efficient than amoxicillin [1] [fold] | bactericidal or bacteriostatic effect [1] | MBC ([1]; ATCC29853) [µg/mL] | MIC ([1]; ATCC29853) [µg/mL] | MIC [1, 4] [µg/mL] | MIC (S. aureus (ATCC 25923)) [µg/mL] | MIC (B. subtilis (ATCC 9372)) [µg/mL] | ratio (MFC/MIC) (C. albicans (ATCC 10231)) | fungicidal or fungistatic behavior (C. albicans (ATCC 10231)) | MFC (C. albicans (ATCC 10231); ATCC10231) [µg/mL] | MIC (C. albicans (ATCC 10231); ATCC10231) [µg/mL] | MIC (C. albicans (ATCC 10231); [5]) [µg/mL] | MIC [2, 6] [µg/mL] | MIC [2, 7] [µg/mL] | IC50 [3] [µM]
1 | Brc1ccc(-c2csc(N3N=C(c4cccs4)CC3c3cccs3)n2)cc1 (centres unmarked) [4c, 1-(4-(4-Bromophenyl)thiazol-2-yl)-4,5-dihydro-3,5-di(thiophen-2-yl)-1H-pyrazole] | > 500 | 4 | ~16 | bactericidal | 125 (≈ 265 µM) | 31.2 (≈ 66.1 µM) | 31.2 (≈ 66.1 µM) | 62.5 (≈ 132 µM) | 125 (≈ 265 µM) | 8 | fungistatic | 31.2 (≈ 66.1 µM) | 3.9 (≈ 8.25 µM) | 3.9 (≈ 8.25 µM) | 0.12 to 1.95 (≈ 0.254 to 4.13 µM) | 0.12 (≈ 0.254 µM) | 4.21 ± 0.13
2 | COc1ccc(OC)c(C2CC(c3cccs3)=NN2C2=NC(=O)CS2)c1 (centres unmarked) [6b, 2-(4,5-Dihydro-5-(2,5-dimethoxyphenyl)-3-(thiophen-2-yl)pyrazol-1-yl)thiazol-4(5H)-one] | 125 (≈ 323 µM) | 4 | – | bactericidal | 15.6 (≈ 40.3 µM) | 3.9 (≈ 10.1 µM) | 3.9 (≈ 10.1 µM) | 62.5 (≈ 161 µM) | 125 (≈ 323 µM) | 4 | – | 15.6 (≈ 40.3 µM) | 3.9 (≈ 10.1 µM) | 3.9 (≈ 10.1 µM) | 0.12 to 1.95 (≈ 0.31 to 5.03 µM) | 0.12 (≈ 0.31 µM) | 5.7 ± 0.28
3 | COc1ccc(C=C2SC(N3N=C(c4cccs4)CC3c3cc(OC)ccc3OC)=NC2=O)cc1 (centres unmarked) [8b, 5-(4-Methoxybenzylidene)-2-(4,5-dihydro-5-(2,5-dimethoxyphenyl)-3-(thiophen-2-yl)pyrazol-1-yl)thiazol-4(5H)-one] | > 500 | 8 | – | – | 500 (≈ 989 µM) | 62.2 (≈ 123 µM) | 62.2 (≈ 123 µM) | 62.5 (≈ 124 µM) | 62.5 (≈ 124 µM) | 4 | – | 125 (≈ 247 µM) | 31.2 (≈ 61.8 µM) | 31.2 (≈ 61.8 µM) | – | – | 18.5 ± 0.61
4 | COc1ccc(OC)c(C=C2SC(N3N=C(c4cccs4)CC3c3cccs3)=NC2=O)c1 (centres unmarked) [8c, 5-(2,5-Dimethoxybenzylidene)-2-(4,5-dihydro-3,5-di(thiophen-2-yl)pyrazol-1-yl)thiazol-4(5H)-one] | 125 (≈ 260 µM) | 8 | ~16 | – | 250 (≈ 519 µM) | 31.2 (≈ 64.9 µM) | 31.2 (≈ 64.9 µM) | 62.5 (≈ 130 µM) | 125 (≈ 260 µM) | 2 | – | 62.2 (≈ 129 µM) | 31.2 (≈ 64.9 µM) | 31.2 (≈ 64.9 µM) | 7.81 (≈ 16.2 µM) | – | –
5 | COc1ccc(OC)c(C=C2SC(N3N=C(c4cccs4)CC3c3cc(OC)ccc3OC)=NC2=O)c1 (centres unmarked) [8d, 5-(2,5-Dimethoxybenzylidene)-2-(4,5-dihydro-5-(2,5-dimethoxyphenyl)-3-(thiophen-2-yl)pyrazol-1-yl)thiazol-4(5H)-one] | 125 (≈ 233 µM) | 2 | – | bactericidal | 125 (≈ 233 µM) | 62.2 (≈ 116 µM) | 62.2 (≈ 116 µM) | 62.5 (≈ 117 µM) | 125 (≈ 233 µM) | 2 | – | 125 (≈ 233 µM) | 62.5 (≈ 117 µM) | 62.5 (≈ 117 µM) | 31.2 (≈ 58.3 µM) | – | –
6 | O=C1N=C(N2N=C(c3cccs3)CC2c2cccs2)SC1=C1C(=O)Nc2ccccc21 (centres unmarked) [9a, 3-(2-(4,5-Dihydro-3,5-di(thiophen-2-yl)pyrazol-1-yl)-4-oxothiazol-5(4H)-ylidene)indolin-2-one] | 125 (≈ 270 µM) | 2 | ~16 | bactericidal | 62.2 (≈ 135 µM) | 31.2 (≈ 67.6 µM) | 31.2 (≈ 67.6 µM) | 62.5 (≈ 135 µM) | 125 (≈ 270 µM) | 2 | – | 250 (≈ 540 µM) | 125 (≈ 270 µM) | 125 (≈ 270 µM) | 15.6 (≈ 33.7 µM) | – | –
7 | COc1ccc(OC)c(C2CC(c3cccs3)=NN2C2=NC(=O)C(=C3C(=O)Nc4ccccc43)S2)c1 (centres unmarked) [9b, 3-(2-(4,5-Dihydro-5-(2,5-dimethoxyphenyl)-3-(thiophen-2-yl)pyrazol-1-yl)-4-oxothiazol-5(4H)-ylidene)indolin-2-one] | 125 (≈ 242 µM) | 2 | – | bactericidal | 125 (≈ 242 µM) | 62.2 (≈ 120 µM) | 62.2 (≈ 120 µM) | 62.5 (≈ 121 µM) | 125 (≈ 242 µM) | 16 | fungistatic | 500 (≈ 968 µM) | 31.2 (≈ 60.5 µM) | 31.2 (≈ 60.5 µM) | – | – | 22.7 ± 0.55
8 | O=C1CCSC(N2N=C(c3cccs3)CC2c2cccs2)=N1 (centres unmarked) [10a, 5,6-Dihydro-2-(4,5-dihydro-3,5-di(thiophen-2-yl)pyrazol-1-yl)-1,3-thiazin-4-one] | 125 (≈ 360 µM) | 4 | ~16 | bactericidal | 125 (≈ 360 µM) | 31.2 (≈ 89.9 µM) | 31.2 (≈ 89.9 µM) | 125 (≈ 360 µM) | 62.5 (≈ 180 µM) | 4 | – | 250 (≈ 719 µM) | 62.5 (≈ 180 µM) | 62.5 (≈ 180 µM) | 31.2 (≈ 89.9 µM) | – | –
9 | COc1ccc(OC)c(C2CC(c3cccs3)=NN2C2=NC(=O)CCS2)c1 (centres unmarked) [10b, 5,6-Dihydro-2-(4,5-dihydro-5-(2,5-dimethoxyphenyl)-3-(thiophen-2-yl)pyrazol-1-yl)-1,3-thiazin-4-one] | 125 (≈ 311 µM) | 4 | – | bactericidal | 250 (≈ 623 µM) | 62.2 (≈ 155 µM) | 62.2 (≈ 155 µM) | 250 (≈ 623 µM) | 62.5 (≈ 156 µM) | 2 | – | 31.2 (≈ 77.8 µM) | 15.6 (≈ 38.9 µM) | 15.6 (≈ 38.9 µM) | – | – | 10.6 ± 0.31
